Tests used:
Nrf2 = Nrf2 nuclear translocation in endothelial cells; format: cell-based; conditions: ML385 co-treatment; immunofluorescence and western blotting
Method: After induction of obesity in C57BL/6 male mice fed with high fat diet for twelve weeks, they were treated daily with ASP (50 mg/kg) via oral gavage for seven weeks in vivo study. C57BL/6 mice aortae were used for ex vivo study and endothelial cells were used for in vitro study. Vascular function was determined by wire myograph. DHE and MitoSOX staining were used to detect ROS levels. QPCR, aortic en-face immunofluorescence staining, and Western blotting were used to analyze mRNA and protein expressions. Small interfering (si)RNA of Nrf2 and HO-1, inhibitors of Nrf2 (ML385, Cat. No.: HY-100523) and HO-1 (OB-24, HY-118487) were used to elucidate the mechanistic pathway of ASP's action.
(§1) After induction of obesity in C57BL/6 male mice fed with the high-fat diet for twelve weeks, they were treated daily with ASP (50 mg/kg) via oral gavage for seven weeks in vivo study. C57BL/6 mice aortae were used for ex vivo studies. Endothelial cells, HepG2 and primary adipocytes were used for in vitro studies. Vascular function was determined by wire myograph. H&E staining was employed for histological examination. Oil Red O staining was used to determine lipid droplets in tissues and cells. DHE and MitoSOX staining were used to detect ROS levels. QPCR, aortic en-face immunofluorescence staining, and Western blotting were used to analyze mRNA and protein expressions. ARE binding activity was determined by Dual luciferase reporter assay. Small interfering (si)RNA of Nrf2 and HO-1, inhibitors of Nrf2 (ML385, Cat. No.: HY-100523) and HO-1 (OB-24, HY-118487) were used to elucidate the mechanistic pathway of ASP's action.

[1] = tested on: Nrf2/antioxidant responsive element (ARE); test: ARE binding activity, luciferase reporter assay in endothelial cells; format: cell-based; conditions: luciferase reporter assay
Method: as §1

Cc1ccccc1C(=O)N1CCc2cc(-c3nc(NC(=O)Cc4ccc5c(c4)OCO5)sc3C)ccc21 [ML385, reference compound]
effect on Nrf2 nuclear translocation stimulated by ASP (Nrf2): blocks Nrf2 nuclear translocation stimulated by ASP | effect on activation of ARE binding by ASP [1]: attenuates the activation of ARE binding by ASP
